Measurements taken from patent US8735387B2, “Oxazolopyrimidines as Edg-1 receptor agonists” (Sanofi, priority 2008, dated 2014).

The compounds below were run against T1, human Edg-1 receptor (Homo sapiens, UniProt P21453) (assay: GTP-γ-S assay using human Edg-1 receptors (scintillation proximity assay, membrane preparation from CHO Flp-In cell line)). Conditions: example compound at 10 μM; relative to 10 μM S1P; GTP-γ-S SPA, human Edg-1 membranes.
T1 construct: expressed in transfected cells; membrane preparation
Format: biochemical
Procedure, shortened: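 Membranes came from Flp-In CHO cells constitutively expressing human Edg-1 carrying an N-terminal FLAG tag. Compound-induced receptor activation was read as GTP-γ-S binding in a scintillation proximity format.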

T1 sequence (P21453 whole entry): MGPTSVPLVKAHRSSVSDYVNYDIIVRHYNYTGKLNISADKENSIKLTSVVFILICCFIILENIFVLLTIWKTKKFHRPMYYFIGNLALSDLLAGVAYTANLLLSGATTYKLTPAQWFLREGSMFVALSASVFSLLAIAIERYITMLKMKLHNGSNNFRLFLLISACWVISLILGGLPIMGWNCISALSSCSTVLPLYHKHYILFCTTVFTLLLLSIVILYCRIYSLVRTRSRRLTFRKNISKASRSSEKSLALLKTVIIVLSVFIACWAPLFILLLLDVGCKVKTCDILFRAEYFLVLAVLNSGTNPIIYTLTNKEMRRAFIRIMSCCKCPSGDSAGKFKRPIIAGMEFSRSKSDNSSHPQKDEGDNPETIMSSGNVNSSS

SMILES	% Activation (Edg-1 receptor activation in percent of the activation by 10 μM S1P) [%]
CCCOc1nc(Cc2ccc(Cl)cc2)nc2oc(-c3cc(C)c(OCC(O)CNC4CCN(CC(C)C)CC4)c(C)c3)nc12 (stereo not drawn) [Example 206]	67
CCCOc1nc(Cc2ccc(Cl)cc2)nc2oc(-c3ccc(Cl)nc3)nc12 [Example 201]	68
CCCOc1nc(CN2CCOC[C@@H]2C)nc2oc(-c3cccc(F)c3)nc12 [Example 184]	88
CCOc1nc(Cc2ccc(Cl)cc2)nc2oc(-c3cc(C)c(OCC(=O)NCC(=O)OC(C)(C)C)c(C)c3)nc12 [Example 250]	72
CCCOc1nc(Cc2ccc(Cl)cc2)nc2oc(-c3cncc(C)c3)nc12 [Example 153]	84
CCCOc1nc(Cc2ccc(Cl)cc2)nc2oc(-c3cc(C)c(OCC(O)CN(C)C)c(C)c3)nc12 (stereo not drawn) [Example 192]	60
CCCOc1nc(Cc2ccc(Cl)cc2)nc2oc(-c3cc(C)ccc3F)nc12 [Example 167]	102
CCCOc1nc(Cc2ccc(Cl)cc2)nc2oc(-c3cc(C)c(OCC(=O)N4CCC(C(=O)O)C4)c(C)c3)nc12 (stereo not drawn) [Example 243]	106
CCOc1nc(Cc2ccc(Cl)cc2)nc2oc(-c3cc(C)c(OCCCS(=O)(=O)c4nnc(C(C)(C)C)[nH]4)c(C)c3)nc12 [Example 278]	105
CCCOc1nc(CN2CCC(F)(F)CC2)nc2oc(-c3ccc(F)c(F)c3)nc12 [Example 68]	120
CCOc1nc(CC2CCCCC2)nc2oc(-c3cccc(C)c3)nc12 [Example 309]	104

The next lines start with the values.

% Activation (Edg-1 receptor activation in percent of the activation by 10 μM S1P) [%]	SMILES
77	CCCOc1nc(Cc2ccc(Cl)cc2)nc2oc(-c3cnc(N4CCN(C)CC4)nc3)nc12 [Example 173]
115	CCCOc1nc(Cc2ccc(Cl)cc2)nc2oc(-c3cc(C)c(OCC(O)CNCCC(=O)O)c(C)c3)nc12 (stereo not drawn) [Example 237]
97	CCCOc1nc(CN2CCOC[C@@H]2CO)nc2oc(-c3cccc(F)c3)nc12 [Example 185]
102	CCCOc1nc(Cc2ccc(Cl)cc2)nc2oc(-c3cc(C)cc(C)c3)nc12 [Example 149]

Same assay, conditions: example compound at 10 μM; relative to 10 μM S1P; GTP-γ-S SPA, human Edg-1 membranes; read-out: % Activation (Edg-1 receptor activation in percent of the activation by 10 μM S1P)

SMILES	activation at 10 µM [%]
CCCOc1nc(Cc2ccc(Cl)c(Cl)c2)nc2oc(-c3cccc(C)c3)nc12 [Example 11, 5-(3,4-Dichloro-benzyl)-7-propoxy-2-(3-methyl-phenyl)-oxazolo[5,4-d]pyrimidine]	39
CCCOc1nc(Cc2ccc(Cl)cc2)nc2oc(-c3cc(C)c(OCCCN4CCOCC4)c(C)c3)nc12 [Example 200, 5-(4-Chloro-benzyl)-2-[3,5-dimethyl-4-(3-morpholin-4-yl-propoxy)-phenyl]-7-propoxy-oxazolo[5,4-d]pyrimidine]	79
Cc1cccc(-c2nc3c(OCC4CC4)nc(Cc4ccc(Cl)cc4)nc3o2)c1 [Example 105, 5-(4-chloro-benzyl)-7-cyclopropylmethoxy-2-(3-methyl-phenyl)-oxazolo[5,4-d]pyrimidine]	81
